Measured values as given in US20260184687A1, “DIHYDROINDENE DERIVATIVES AS MALT1 INHIBITORS” (C4X Discovery Limited, priority 2022, published 2026).
pIC50: −log10 of the molar value. Like-named read-outs stand apart in the source and are kept apart here.

Experiments:
[1] = test system: IL-2 release from stimulated Jurkat cells; test: Human IL-2 Release Phenotypic Assay (Assay 3); format: cell-based; settings: Jurkat cells (clone E6-1), 200 ng/mL PMA + 300 ng/mL ionomycin, IL-2 by ELISA
Method in brief: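 IC50 values were fitted by 4-parameter non-linear regression to IL-2 release from Jurkat E6-1 cells. Those cells were stimulated for 48 h with PMA (200 ng/mL) plus ionomycin (300 ng/mL) after a 30-min compound pre-incubation at half-log doses in 0.5% DMSO. Cells had been plated at 50 000/well overnight at 37° C.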

[2] = target: T1, FL hMALT1 enzyme (Homo sapiens, UniProt Q9UDY8);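 note: Cell-free protease assay: enzyme preincubated with compound 30 min at room temperature, then cleavage of fluorogenic Ac-LVSR-AMC substrate (100 µM) tracked by fluorescence (ex 360/em 460 nm)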
T1 sequence (Q9UDY8 1-824): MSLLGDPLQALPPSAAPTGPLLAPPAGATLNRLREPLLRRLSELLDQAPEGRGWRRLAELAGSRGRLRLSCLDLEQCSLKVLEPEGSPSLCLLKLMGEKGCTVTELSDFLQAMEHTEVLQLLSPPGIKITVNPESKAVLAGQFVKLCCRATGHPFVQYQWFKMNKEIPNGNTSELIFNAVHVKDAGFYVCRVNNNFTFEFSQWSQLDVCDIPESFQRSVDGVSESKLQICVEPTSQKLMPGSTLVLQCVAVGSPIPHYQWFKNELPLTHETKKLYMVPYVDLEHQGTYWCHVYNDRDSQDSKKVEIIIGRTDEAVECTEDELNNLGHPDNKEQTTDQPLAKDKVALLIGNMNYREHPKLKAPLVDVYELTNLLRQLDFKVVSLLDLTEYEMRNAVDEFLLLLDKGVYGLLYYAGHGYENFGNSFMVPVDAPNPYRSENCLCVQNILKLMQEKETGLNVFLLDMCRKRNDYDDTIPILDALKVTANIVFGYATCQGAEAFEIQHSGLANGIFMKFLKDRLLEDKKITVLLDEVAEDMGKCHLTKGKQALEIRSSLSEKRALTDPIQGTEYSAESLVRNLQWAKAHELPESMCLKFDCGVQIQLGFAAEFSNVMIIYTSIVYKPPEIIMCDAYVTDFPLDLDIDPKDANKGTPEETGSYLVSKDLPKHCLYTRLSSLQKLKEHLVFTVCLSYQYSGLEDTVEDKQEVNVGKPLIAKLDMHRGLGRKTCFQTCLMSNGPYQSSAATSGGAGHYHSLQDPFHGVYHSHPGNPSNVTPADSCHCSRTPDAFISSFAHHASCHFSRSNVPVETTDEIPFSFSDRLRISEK

[3] = target: T2, MALT1-GS-Ub (6-His-hMALT-1 residues 339-715 fused to ubiquitin) (Homo sapiens, UniProt Q9UDY8);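 note: in vitro MALT1 protease assay: enzyme preincubated with compound 30 min at room temperature, then cleavage of fluorogenic Ac-LVSR-AMC substrate (100 µM) followed by fluorescence every 15 min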
Protocol: (§1) MALT1 protease activity was assessed in vitro by measuring the cleavage of a fluorogenic tetrapeptide substrate.
(§2) A protein (MALT1-GS-Ub) comprising 6-His-hMALT-1 (residues 339-715), fused to ubiquitin with an 8×GGS linker, was expressed in E. coli, and purified using chitin resin to remove contaminants followed by affinity chromatography purification and size-exclusion chromatography, according to standard protocols.
(§3) Briefly, MALT1-GS-Ub (300-600 nM) was incubated with substrate (Ac-LVSR-AMC, 100 μM) in reaction buffer comprising 50 mM HEPES (pH7.0), 25 mM KCl, 0.1% (v/v) CHAPS and 1 mM TCEP.
(§4) Test compounds dissolved in DMSO were dispensed into assay plates (384-well, black, shallow ProxiPlates). 7 μl enzyme solution was added and incubated at room temperature for 30 minutes to allow compound binding to occur. 2 μl substrate solution was then added and the fluorescence (excitation 360 nm, emission 460 nm) read every 15 minutes using a suitable plate reader. Final assay DMSO concentration was 1%. […] IC50 values were calculated using GraphPad Prism using a 4-parameter non-linear regression curve fit.

[4] = target: T1, FL hMALT1 enzyme; test: biochemical
[5] = target: T2, MALT1-GS-Ub (6-His-hMALT-1 residues 339-715 fused to ubiquitin); test: biochemical
Protocol: as §1, §2, §3, §4

T2 sequence (Q9UDY8 with tags, fused parts or gaps limits assumed): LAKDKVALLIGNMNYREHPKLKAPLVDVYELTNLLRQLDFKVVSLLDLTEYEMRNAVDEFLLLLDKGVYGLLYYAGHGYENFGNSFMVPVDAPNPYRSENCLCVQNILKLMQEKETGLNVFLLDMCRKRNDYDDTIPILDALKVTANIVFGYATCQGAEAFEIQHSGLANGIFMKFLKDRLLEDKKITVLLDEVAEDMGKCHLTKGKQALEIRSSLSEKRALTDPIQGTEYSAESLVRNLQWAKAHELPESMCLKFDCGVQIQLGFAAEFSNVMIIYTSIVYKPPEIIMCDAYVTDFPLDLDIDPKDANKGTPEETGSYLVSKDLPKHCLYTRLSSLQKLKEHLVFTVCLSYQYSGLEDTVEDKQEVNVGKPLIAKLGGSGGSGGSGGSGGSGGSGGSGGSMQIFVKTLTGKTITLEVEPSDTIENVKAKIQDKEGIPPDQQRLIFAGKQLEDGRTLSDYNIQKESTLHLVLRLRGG

Q: With `CC(=O)NC12CC(C(=O)N(C)[C@@H](c3ccc(N[C@H]4Cc5ccccc5C4(C)C)cn3)C(F)(F)F)(C1)C2` [Example 179, 3-Acetamido-N—((S)-1-(5-(((S)-1,1-dimethyl-2,3-dihydro-1H-inden-2-yl)amino)pyridin-2-yl)-2,2,2-trifluoroethyl)-N-methylbicyclo[1.1.1]pentane-1-carboxamide] as the molecule, how does the pIC50 ([1]; Homo sapiens, Jurkat, 48 h) read?
A: 6.33

Q: What about the pIC50 [2] of the same molecule?
A: 7.06

Q: What does the source list for `CN(C(=O)C1CCS(=O)(=O)CC1)[C@@H](c1ccc(NC2Cc3ccccc3C2(C)C)cc1)C(F)(F)F` (single isomer, unassigned) [Example 2]?
A: pIC50 [3]: 6.85; pIC50 ([1]; 48 hours): 6.21; pIC50 [4]: 7.30

Q: What does the source list for `CC1c2ccccc2CC1Nc1ccc([C@H](N(C)C(=O)C2CCS(=O)(=O)CC2)C(F)(F)F)cc1` (stereo in doubt) [Example 9, N-Methyl-N—((S)-2,2,2-trifluoro-1-(4-(((1,2-trans)-1-methyl-2,3-dihydro-1H-inden-2-yl)amino)phenyl)ethyl)tetrahydro-2H-thiopyran-4-carboxamide 1,1-dioxide]?
A: pIC50 [3]: 6.62; pIC50 ([1]; 48 hours): 6.68; pIC50 [2]: 8.22

Q: With `COC1c2ccccc2CC1Nc1ccc([C@H](N(C)C(=O)C2CCS(=O)(=O)CC2)C(F)(F)F)cc1` (stereo in doubt) [Example 11, N-Methyl-N—((S)-2,2,2-trifluoro-1-(4-(((1,2-trans)-1-methoxy-2,3-dihydro-1H-inden-2-yl)amino)phenyl)ethyl)tetrahydro-2H-thiopyran-4-carboxamide 1,1-dioxide] as the molecule, how does the pIC50 [3] read?
A: 5.41

Q: What about the pIC50 ([1]; 48 hours) of the same molecule?
A: < 5.00

Q: And the pIC50 [2]?
A: 5.92

Q: `CN(C(=O)C1CCS(=O)(=O)CC1)[C@@H](c1ccc(NC2Cc3ccccc3C2(C)C)nc1)C(F)(F)F` (single isomer, unassigned) [Example 37] was tested. Which pIC50 ([1]; 48 hours) did it give?
A: 6.30

Q: What about the pIC50 [5] of the same molecule?
A: 6.57

Q: And the pIC50 [2]?
A: 7.41

Q: With `CC(=O)NCCC(=O)N(C)[C@@H](c1ccc(NC2Cc3ccccc3C2(C)C)cc1)C(F)(F)F` (single isomer, unassigned) [Example 25] as the molecule, how does the pIC50 [3] read?
A: 6.80

Q: And the pIC50 ([1]; 48 hours)?
A: 7.21

Q: And the pIC50 [4]?
A: 7.57

Q: What does the source list for `CN(C(=O)c1cnco1)[C@@H](c1ccc(NC2Cc3ccccc3C2(C)C)cc1)C(F)(F)F` (single isomer, unassigned) [Example 4]?
A: pIC50 [3]: 6.85; pIC50 ([1]; 48 hours): 7.16; pIC50 [4]: 7.47

Q: `CN(C(=O)C1CCS(=O)(=O)CC1)[C@@H](c1ccc(NC2Cc3ccc(Cl)cc3C2(C)C)cc1)C(F)(F)F` (single isomer, unassigned) [Example 150] was tested. Which pIC50 ([1]; Homo sapiens, Jurkat, 48 h) did it give?
A: 7.00

Q: What about the pIC50 [4] of the same molecule?
A: 7.18

Q: And the pIC50 [5]?
A: 6.82

Q: `CN(C(=O)CCN1CCCC1=O)[C@@H](c1ccc(NC2Cc3ccccc3C2(C)C)cc1)C(F)(F)F` (single isomer, unassigned) [Example 48] was tested. Which pIC50 ([1]; 48 hours) did it give?
A: 5.94

Q: And the pIC50 [4]?
A: 7.77

Q: What about the pIC50 [5] of the same molecule?
A: 6.85
